Assay [1] in a line: Ferric ion reducing antioxidant power (FRAP) assay. The following applies: means ± SDs; ascorbic acid equivalents; read at 593 nm.
Procedure: The FRAP values were generated by comparing the absorbance changes in the test mixtures with those obtained from increasing concentrations of Fe^3+ and were expressed as µM AAE/g of the samples (Figure 3).
Preparation of the FRAP reagent in a 50 mL conical flask was composed of 30 mL Acetate buffer (300 mM, pH 3.6; 1.627 g Sodium acetate + 16 mL Glacial acetic acid and made up to 1 L with distilled water) + 3 mL TPTZ 10 mM solution (0.0093 g TPTZ and 3 mL of 40 mM HCl in 15 mL flask) + 3 mL FeCl3 solution (0.054 g FeCl3.6H2O and 10 mL distilled water) and 6.6 mL of distilled water. A control solution was prepared by dissolving 0.00352 g of Ascorbic acid in 50 mL, diluted to the mark with distilled water. A standard curve was prepared as per the method described by Benzie and Strain, 1996. L-Ascorbic acid (Sigma Aldrich, Cape Town, South Africa) was used as a standard, with concentrations varying between 0 and 1000 µM. Dilutions were made for the extracts that were highly concentrated, and dilution factors were noted and considered in calculations for the relevant extracts. In a 96-well clear microplate, 10 µL of the stock solutions of the extracts (hexane, dichloromethane, ethyl acetate, methanol, and butanol) of three plants were mixed with a 300 µL FRAP reagent. The plate was read at a wavelength of 593 nm in a multiplate reader. […]
For assay [2], the target named is T1, α-glucosidase (Saccharomyces cerevisiae) (Saccharomyces cerevisiae, UniProt P53341).
T1 construct: purchased Sigma-Aldrich, South Africa
Briefly: Alpha glucosidase inhibitory activity. The assay is classed as biochemical. To be noted: for IC50: IC50 on alpha glucosidase, concentrations 125.0-1.95 µg/mL, means ± SDs; for activity in screening against alpha glucosidase: isolated compounds tested at 125.0 µg/mL. As to the method: (§1) The extracts of Searsia species were screened to determine their inhibition activities with respect to enzymes relevant to the management of diabetes. The extracts were tested at 2.0 mg/mL.
(§2) The isolated compounds from the three plants were tested against alpha glucosidase and alpha amylase at 125.0 µg/mL to determine their inhibitory activities.
(§3) Standards (purity > 99.0%) for antioxidants, Trolox (6-hydroxyl-2,5,7,8-tetramethylchroman-2-carboxylic acid; Saarchem, Mumbai, India), and other reagents, including ABTS (2,2′-azino-bis (3-ethylbenzo thiazoline-6-sulfonic acid) diammonium salt (Sigma), potassium-peroxodisulphate (Merck), Ethanol (Saarchem), fluorescein sodium salt (Sigma), AAPH (2,2′-azobis (2-methylpropionamidine) dihydrochloride (Aldrich), Sodium dihydrogen orthophosphate dihydrate ([…], Merck), PCA (perchloric acid, Saarchem), TPTZ (2,4,6-tri[2-pyridyl]-s-triazine), iron (III) chloride hexahydrate, and copper sulphate, were purchased from Sigma-Aldrich, Inc. (St. Louis, MO, USA). L-Ascorbic acid was procured from Sigma Aldrich, Cape Town, South Africa. Antioxidant assays, including FRAP and TEAC assays, were performed using a Multiskan spectrum plate reader, while an automated ORAC assay was performed with a Floroskan spectrum plate reader. For the enzyme inhibition studies, α-glucosidase (Saccharomyces cerevisiae), α-amylase ([…]) and 3, 5, di-nitro salicylic acid (DNS), p-nitro-phenyl-α-D-glucopyranoside (p-NPG), sodium carbonate (Na2CO3), soluble starch, sodium dihydrogen phosphate, and disodium hydrogen phosphate were purchased from Sigma-Aldrich, South Africa.
The alpha glucosidase inhibitory activities of the extracts were determined according to the standard method, with minor modifications. In a 96-well plate, a reaction mixture containing 50 μL phosphate buffer (100 mM, pH = 6.8), 10 μL alpha glucosidase (1 U/mL), and 20 μL of extract at 2.0 mg/mL was pre-incubated at 37 °C for 15 min. Then, 20 μL P-NPG (5 mM) was added as a substrate and incubated further at 37 °C for 20 min. The reaction was stopped by adding 50 μL Na2CO3 (0.1 M). The absorbance of the released p-nitrophenol was measured at 405 nm using a Multiplate Reader. The results were reported as half-maximal inhibitory (IC50) concentrations in μM. […] Each extract was tested in triplicate. (1) Inhibitory activity (%)=1 − As/Ac×100 where As is the absorbance in the presence of the test substance and Ac is the absorbance of the control.

For assay [3], the target named is T2, α-amylase (procaine pancreas) (Sus scrofa, UniProt P00690).
T2 construct: purchased Sigma-Aldrich, South Africa; host or cells: pancreas
T2 sequence (P00690 16-511): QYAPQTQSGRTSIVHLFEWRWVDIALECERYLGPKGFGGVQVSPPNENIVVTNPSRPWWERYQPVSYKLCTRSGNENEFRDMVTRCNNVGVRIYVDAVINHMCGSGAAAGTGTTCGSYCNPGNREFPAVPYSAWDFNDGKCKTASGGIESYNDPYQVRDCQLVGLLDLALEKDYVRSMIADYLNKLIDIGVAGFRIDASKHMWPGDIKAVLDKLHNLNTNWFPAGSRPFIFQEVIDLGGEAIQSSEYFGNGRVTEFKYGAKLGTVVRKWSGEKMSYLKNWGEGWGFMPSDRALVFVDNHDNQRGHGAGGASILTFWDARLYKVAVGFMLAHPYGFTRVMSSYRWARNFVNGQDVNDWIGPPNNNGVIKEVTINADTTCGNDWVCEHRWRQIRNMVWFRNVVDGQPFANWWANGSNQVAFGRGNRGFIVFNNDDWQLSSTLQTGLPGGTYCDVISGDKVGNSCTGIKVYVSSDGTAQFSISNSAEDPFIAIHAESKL
Briefly: Alpha amylase inhibitory assay. The assay is classed as biochemical. The following applies: for IC50: concentrations 125.0-1.95 µg/mL, means ± SDs; for activity in screening against alpha amylase: isolated compounds tested at 125.0 µg/mL. As to the method: as §1, §2, §3
The alpha amylase inhibitory assays of the extracts were carried out according to the standard method, with minor modifications. In a 96-well plate, the reaction mixture, containing 50 μL phosphate buffer (100 mM, pH = 6.8), 10 μL alpha amylase (2 U/mL), and 20 μL of plant extracts at 2.0 mg/mL, was preincubated at 37°C for 20 min. Then, 20 μL of 1% soluble starch (100 mM phosphate buffer pH 6.8) was added as a substrate and incubated further at 37 °C for 30 min; 100 μL of the DNS colour reagent was then added and boiled for 10 min. The absorbance of the resulting mixture was measured at 540 nm using a multiplate reader. […] The extracts or isolated compounds were measured in triplicate. The results were reported as half-maximal inhibitory (IC50) concentrations in μM. The results for both alpha amylase and alpha glucosidase were calculated using equation 1.

The nature of assay [4]: Oxygen radical absorbance capacity (ORAC) assay. To be noted: means ± SDs; Trolox equivalents per g of plant extract.
Procedure: ORAC was determined according to a previously described method [46], with some modifications [47]. Fluorescein was used as the fluorescent probe. The loss of fluorescence of fluorescein was an indication of the extent of oxidation through reaction with peroxyl or hydroxyl radicals. The protective effect of an antioxidant was measured by assessing the fluorescence area under the curve plot relative to that of a blank in which no antioxidant was present. The ORAC value was calculated by dividing the area under the sample curve by the area under the Trolox curve, with both areas being corrected by subtracting the area under the blank curve.
Assay [5] can be described thus: Trolox equivalent antioxidant capacity (ABTS/TEAC) assay. The following applies: means ± SDs; ABTS, 734 nm, 30 min.
Procedure: The antioxidant power of the extracts was examined using the ABTS radical decolorization assay, which measures the relative antioxidant ability to scavenge the radical ABTS^+ (2.2′-azinobis (3-ethylbenzothiazoline-6-sulfonic acid)), a blue-green chromophore with maximum absorption at 734 nm that decreases in its intensity in the presence of antioxidants.
The ABTS mix solution was diluted with ethanol to read a start-up absorbance of approximately 2.0 (±0.1). The test extracts were prepared by dissolving 1 mg of an extract in 1 mL of methanol, allowed to react with 300 µL ABTS solution in the dark at room temperature for 30 min. The absorbance was measured at 734 nm at 25 °C in a multiplate reader. The results were expressed as µM Trolox equivalents per milligram dry weight (µM TE/g) of the test samples.

We go through four compounds from PMC9606921, “Phytochemical Investigation and Biological Studies on Selected Searsia Species” (Plants, 2022).

Values joined by “and” are separate entries in the source; they are usually repeats but may differ in a detail not shown here. Identical values can stand only once.

T1 sequence (P53341 whole entry): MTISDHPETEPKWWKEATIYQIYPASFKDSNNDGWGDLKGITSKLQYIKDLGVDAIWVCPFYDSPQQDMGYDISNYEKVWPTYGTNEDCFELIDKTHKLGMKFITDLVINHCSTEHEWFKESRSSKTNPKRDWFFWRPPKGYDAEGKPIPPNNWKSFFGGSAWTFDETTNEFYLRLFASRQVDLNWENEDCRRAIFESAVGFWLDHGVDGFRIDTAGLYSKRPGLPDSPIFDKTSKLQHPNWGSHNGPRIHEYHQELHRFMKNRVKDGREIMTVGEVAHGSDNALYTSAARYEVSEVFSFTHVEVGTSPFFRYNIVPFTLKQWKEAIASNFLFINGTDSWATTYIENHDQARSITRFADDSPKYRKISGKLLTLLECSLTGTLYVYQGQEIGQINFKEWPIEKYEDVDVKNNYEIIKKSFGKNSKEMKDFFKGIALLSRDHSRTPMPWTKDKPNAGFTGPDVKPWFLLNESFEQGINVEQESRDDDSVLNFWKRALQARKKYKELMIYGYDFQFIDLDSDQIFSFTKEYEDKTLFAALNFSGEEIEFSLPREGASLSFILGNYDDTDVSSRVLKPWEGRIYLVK

On to `O=C1O[C@H]([C@@H](O)CO)C(O)=C1O` [Ascorbic acid, L-Ascorbic acid], for which, in assay [1], the FRAP is on record as 390.12 ± 09.12 µM AAE/g.
As usually defined, the IC50 is the concentration that inhibits the measured activity by half. A higher IC50 goes with weaker potency. As to `CC1(C)C=C2[C@H]3CC[C@@H]4[C@@]5(C)CCC(=O)C(C)(C)[C@@H]5CC[C@@]4(C)[C@]3(C)CC[C@@]2(C(=O)O)CC1` [Compound C1, moronic acid], in assay [2], the IC50 was 23.4 µM and 23.2 µM; the “activity in screening against alpha glucosidase” value is given as “showed activity”. In addition, in assay [3], the IC50 is 44.2 µM and the “activity in screening against alpha amylase” value is recorded as “showed activity”.
On to `O=c1cc(-c2ccc(O)c(-c3c(O)cc(O)c4c(=O)cc(-c5ccc(O)cc5)oc34)c2)oc2cc(O)cc(O)c12` [Compound C7, amentoflavone], for which, in assay [2], half-maximal inhibition (IC50) required 10.3 µM and the “activity in screening against alpha glucosidase” value was “showed activity”. Besides, in assay [3], inhibition was half-maximal at 36.8 µM (IC50) and the “activity in screening against alpha amylase” value is listed as “showed activity”.
With `Cc1c(C)c2c(c(C)c1O)CCC(C)(C(=O)O)O2` (centres unmarked) [Trolox, 6-hydroxyl-2,5,7,8-tetramethylchroman-2-carboxylic acid], the ORAC in assay [4] was 14.2 ± 04.01 µM TE/g. Besides, the TEAC in assay [5] amounted to 205.01 ± 05.03 µM TE/g.
